From US10842806B2, “Methods for treating ocular inflammatory disorders” (Massachusetts Eye and Ear Infirmary, priority 2011, dated 2020)

Columns and labels:
retinal vessels = test: Protein leakage from retinal vessels (biotinylated BSA assay); format: in vivo, Lewis rats; details: AICAR-pretreated EIU rats, 24 h after LPS; n=8; EIU rats 30.5±21.2
Procedure: Male Lewis rats ranging from 6-8 weeks old (Charles River, Wilmington, Mass.) were used for these studies. To study the effects of AICAR pretreatment, AICAR and PBS (for placebo treatment) were delivered via intraperitoneal injection of AICAR (50 mg/kg or 100 mg/kg body weight; Sigma) diluted in 150 μl PBS or equal volume of PBS at 6 hours before and at the same time as LPS injection. Four experimental groups of rats were compared: (1) Normal: no treatment (2) AICAR: normal rats treated with AICAR 6 hours before examination; (3) LPS: EIU rats treated with PBS; (4) LPS+AICAR: EIU rats treated with AICAR. Two additional groups of rats were used to study the effects of AICAR (50 mg/kg) given either at the same time as LPS injection or at 6 hours after LPS injection. Protein leakage from retinal vessels was assessed with a biotinylated bovine serum albumin (bBSA) assay as previously described (Trichonas et al. (2010) INVEST. OPHTHALMOL. VIS. SCI. 51:1677-1682). At 23 hours after LPS injection, rats were anesthetized and 0.14 ml of 43.7 mg/ml bBSA (Santa-Cruz Biotechnology, Santa Cruz, Calif.) was injected through the femoral vein. After one hour, the chest cavities of rats were opened, and the rats were perfused with lactated Ringer's solution via the left ventricle for 6 minutes. […] Supernatant was collected, and bBSA concentration was measured by enzyme-linked immunosorbent assay (ELISA). […]

splenic DCs = test: Splenic DC co-stimulatory molecule expression in EAU mice (FACS); format: in vivo; details: AICAR-treated vs non-treated EAU mice; twelve days after immunization
Procedure: To investigate whether DC maturation was affected by AICAR, splenic DCs were isolated from EAU mice and analyzed for co-stimulatory molecule expression. Specifically, spleen cells from 4 to 5 EAU mice were pooled at twelve days after immunization and incubated with the following monoclonal antibodies: anti-CD11c (N418), CD40 (3/23), CD80 (16-10A1), CD86 (GL-1), I-A^b (AF6-120.1) (Biolegend). Spleen cells were gated on the basis of forward and side scatter profile and propidium iodide or DAPI exclusion. Samples of 1×10^6 cells were analyzed by LSR (Becton Dickinson, Franklin Lakes, N.J.).

CD14 = CD14 mRNA (real time PCR) and protein (Western blot) in PBMC of EIU rats; format: in vivo, Lewis rats; details: three hours after LPS
Procedure: Male Lewis rats ranging from 6-8 weeks old (Charles River, Wilmington, Mass.) were used for these studies. To study the effects of AICAR pretreatment, AICAR and PBS (for placebo treatment) were delivered via intraperitoneal injection of AICAR (50 mg/kg or 100 mg/kg body weight; Sigma) diluted in 150 μl PBS or equal volume of PBS at 6 hours before and at the same time as LPS injection. Four experimental groups of rats were compared: (1) Normal: no treatment (2) AICAR: normal rats treated with AICAR 6 hours before examination; (3) LPS: EIU rats treated with PBS; (4) LPS+AICAR: EIU rats treated with AICAR. Two additional groups of rats were used to study the effects of AICAR (50 mg/kg) given either at the same time as LPS injection or at 6 hours after LPS injection. For preparation of peripheral blood mononuclear cell (PBMC) samples, blood samples were collected at three hours after LPS injection, and PBMC samples were isolated by density gradient centrifugation with Histopaque 1083 (Sigma). The red blood cells were lysed with Red Blood Cell Lysing Buffer (Sigma). For Western blot analysis, pooled PBMCs from three rats were homogenized with lysis buffer (Roche Diagnostics Corp) and centrifuged at 13,000 rpm for 10 minutes at 4° C. […] Quantitative expression data were acquired and analyzed with a Step One Plus real-time PCR system (Applied Biosystems).

SMILES: NC(=O)c1ncn([C@@H]2O[C@H](CO)[C@@H](O)[C@H]2O)c1N [AICAR, 5-aminoimidazole-4-carboxamide-1-β-d-ribofuranoside]
- Protein leakage from retinal vessels (bBSA) (retinal vessels): 11.2±7.2 ng/mg total retinal protein
- CD40, CD80, CD86 and I-A^b expression on splenic DCs (splenic DCs): no difference
- CD14 mRNA expression in PBMCs (CD14; AICAR pretreatment, n=9, EIU 3.8±0.7, normal 0.7±0.3): 1.7±1.0
- CD14 protein expression in PBMCs (Western blot) (CD14; AICAR-pretreated rats vs EIU rats): decreased
